Test results reported in PubChem BioAssay (NCI).
Several values for one entry are separate records, joined by “and”; a condition that tells them apart may be missing. Equal values may be shown once.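 Cultured in 96-well plates, cells were exposed to test compound for 48 hours across five concentrations. At the GI50, growth is halved. TGI is the concentration that stops growth completely.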

Columns and labels:
Assay in all cases: growth of human tumour cells (NCI), 48 h
786-0 renal = system: 786-0 renal
A498 renal = system: A498 renal
A549 NSCLC = system: A549 NSCLC
ACHN renal = system: ACHN renal
CAKI-1 renal = system: CAKI-1 renal
CCRF-CEM leukemia = system: CCRF-CEM leukemia
COLO 205 colon = system: COLO 205 colon
DU-145 prostate = system: DU-145 prostate
EKVX NSCLC = system: EKVX NSCLC
HCC-2998 colon = system: HCC-2998 colon
HCT-116 colon = system: HCT-116 colon
HCT-15 colon = system: HCT-15 colon
HL-60(TB) leukemia = system: HL-60(TB) leukemia
HOP-62 NSCLC = system: HOP-62 NSCLC
HOP-92 NSCLC = system: HOP-92 NSCLC
HT29 colon = system: HT29 colon
IGROV1 ovarian = system: IGROV1 ovarian
K-562 leukemia = system: K-562 leukemia
KM12 colon = system: KM12 colon
LOX IMVI melanoma = system: LOX IMVI melanoma
M14 melanoma = system: M14 melanoma
MALME-3M melanoma = system: MALME-3M melanoma
MCF7 breast = system: MCF7 breast
MDA-MB-231 breast = system: MDA-MB-231 breast
MDA-MB-435 = system: MDA-MB-435
MDA-N = system: MDA-N
MOLT-4 leukemia = system: MOLT-4 leukemia
NCI-H226 lung = system: NCI-H226 lung
NCI-H23 lung = system: NCI-H23 lung
NCI-H460 lung = system: NCI-H460 lung
NCI-H522 lung = system: NCI-H522 lung
NCI/ADR-RES ovarian = system: NCI/ADR-RES ovarian
OVCAR-3 ovarian = system: OVCAR-3 ovarian
OVCAR-4 ovarian = system: OVCAR-4 ovarian
OVCAR-5 ovarian = system: OVCAR-5 ovarian
OVCAR-8 ovarian = system: OVCAR-8 ovarian
PC-3 prostate = system: PC-3 prostate
RXF 393 renal = system: RXF 393 renal
SF-268 CNS = system: SF-268 CNS
SF-295 CNS = system: SF-295 CNS
SF-539 CNS = system: SF-539 CNS
SK-MEL-2 melanoma = system: SK-MEL-2 melanoma
SK-MEL-28 melanoma = system: SK-MEL-28 melanoma
SK-MEL-5 melanoma = system: SK-MEL-5 melanoma
SK-OV-3 ovarian = system: SK-OV-3 ovarian
SN12C renal = system: SN12C renal
SNB-19 CNS = system: SNB-19 CNS
SNB-75 CNS = system: SNB-75 CNS
SR leukemia = system: SR leukemia
SW-620 colon = system: SW-620 colon
T-47D breast = system: T-47D breast
TK-10 renal = system: TK-10 renal
U251 CNS = system: U251 CNS
UACC-257 melanoma = system: UACC-257 melanoma
UACC-62 melanoma = system: UACC-62 melanoma
UO-31 renal = system: UO-31 renal

In the case of CC(=O)OCC1OC(n2c(-c3ccccc3)c(C)c(C)c(C#N)c2=S)C(OC(C)=O)C(OC(C)=O)C1OC(C)=O (stereo unspecified), the GI50 (786-0 renal) is reported as 6.84 µM and 23.2 µM, the TGI (786-0 renal) is reported as 19.3 µM and 56.1 µM and the TGI (A498 renal) is reported as over 100 µM. For the same molecule, the GI50 (A549 NSCLC) was 25.7 µM and > 100 µM, the TGI (A549 NSCLC) was over 100 µM and the GI50 (ACHN renal) was 26.8 µM and > 100 µM. For the same molecule, the TGI (ACHN renal) was over 100 µM, the TGI (CAKI-1 renal) was over 50 µM and the GI50 (CCRF-CEM leukemia) was 49.2 µM and > 100 µM. The TGI (CCRF-CEM leukemia) was over 100 µM, the TGI (COLO 205 colon) was over 100 µM and the GI50 (DU-145 prostate) was 36.9 µM and > 100 µM. For the same molecule, the TGI (DU-145 prostate) was over 100 µM, the TGI (EKVX NSCLC) was 46.9 µM and 77 µM and the TGI (HCC-2998 colon) was over 100 µM. The GI50 (HCT-116 colon) was 11.4 µM and 40.1 µM, the TGI (HCT-116 colon) was 21.6 µM and > 100 µM and the TGI (HCT-15 colon) was over 100 µM. The TGI (HL-60(TB) leukemia) was over 100 µM, the GI50 (HOP-62 NSCLC) was 14.3 µM and > 100 µM and the TGI (HOP-62 NSCLC) was 40.4 µM and > 100 µM. It also gave a GI50 (HOP-92 NSCLC) of 0.0211 µM, a TGI (HOP-92 NSCLC) of 24 µM and a TGI (HT29 colon) of over 100 µM. The TGI (IGROV1 ovarian) was over 100 µM, the GI50 (K-562 leukemia) was 24.8 µM and > 100 µM and the TGI (K-562 leukemia) was over 100 µM. The TGI (KM12 colon) was over 100 µM, the GI50 (LOX IMVI melanoma) was 14.1 µM and > 100 µM and the TGI (LOX IMVI melanoma) was over 100 µM. For the same molecule, the GI50 (M14 melanoma) was 15.4 µM and 35 µM, the TGI (M14 melanoma) was over 100 µM and the TGI (MALME-3M melanoma) was over 100 µM. The TGI (MCF7 breast) was over 100 µM, the TGI (MDA-MB-231 breast) was > 50 µM and 30.9 µM and the TGI (MDA-MB-435) was over 100 µM. For the same molecule, the TGI (MDA-N) was > 50 µM and 56.6 µM, the TGI (MOLT-4 leukemia) was over 100 µM and the TGI (NCI-H226 lung) was over 100 µM. For the same molecule, the GI50 (NCI-H23 lung) was 32.9 µM and 16.3 µM, the TGI (NCI-H23 lung) was > 50 µM and 54.7 µM and the TGI (NCI-H460 lung) was over 100 µM. The TGI (NCI-H522 lung) was over 100 µM, the TGI (NCI/ADR-RES ovarian) was over 100 µM and the TGI (OVCAR-3 ovarian) was over 100 µM. The GI50 (OVCAR-4 ovarian) was 14.8 µM and 76.1 µM, the TGI (OVCAR-4 ovarian) was 34.1 µM and > 100 µM and the TGI (OVCAR-5 ovarian) was over 100 µM. For the same molecule, the GI50 (OVCAR-8 ovarian) was 17.6 µM and > 100 µM, the TGI (OVCAR-8 ovarian) was over 100 µM and the TGI (PC-3 prostate) was over 100 µM. For the same molecule, the GI50 (RXF 393 renal) was 23.8 µM and 68.3 µM, the TGI (RXF 393 renal) was over 100 µM and the GI50 (SF-268 CNS) was 18.3 µM and 93.3 µM. For the same molecule, the TGI (SF-268 CNS) was over 100 µM, the TGI (SF-295 CNS) was > 50 µM and 66.4 µM and the GI50 (SF-539 CNS) was 14.4 µM and > 100 µM. For the same molecule, the TGI (SF-539 CNS) was 36.8 µM and > 100 µM, the GI50 (SK-MEL-2 melanoma) was 35.5 µM and 14.6 µM and the TGI (SK-MEL-2 melanoma) was > 50 µM and 41.3 µM. The TGI (SK-MEL-28 melanoma) was over 100 µM, the TGI (SK-MEL-5 melanoma) was over 100 µM and the GI50 (SK-OV-3 ovarian) was 13.2 µM and > 100 µM. The TGI (SK-OV-3 ovarian) was 48.8 µM and > 100 µM, the GI50 (SN12C renal) was 48.3 µM and > 100 µM and the TGI (SN12C renal) was over 100 µM. For the same molecule, the GI50 (SNB-19 CNS) was 17.9 µM and 44.9 µM, the TGI (SNB-19 CNS) was over 100 µM and the TGI (SNB-75 CNS) was over 100 µM. The GI50 (SR leukemia) was 32.3 µM and 95.3 µM, the TGI (SR leukemia) was over 100 µM and the GI50 (SW-620 colon) was 22.9 µM and > 100 µM. For the same molecule, the TGI (SW-620 colon) was over 100 µM, the TGI (T-47D breast) was over 100 µM and the GI50 (TK-10 renal) was 48.6 µM and > 100 µM. The TGI (TK-10 renal) was over 100 µM, the TGI (U251 CNS) was 34.6 µM and the TGI (UACC-257 melanoma) was over 100 µM. For the same molecule, the TGI (UACC-62 melanoma) was > 50 µM and 43.5 µM, the GI50 (UO-31 renal) was > 50 µM and 12 µM and the TGI (UO-31 renal) was > 50 µM and 37.9 µM.
